Test results: US10550105B2 (Ribon Therapeutics Inc., priority 2018, dated 2020)

Molecular target: PARP7 (Homo sapiens (Human), UniProt Q7Z3E1)
Experiment: Enzymatic assay for inhibition of PARP7: TR-FRET displacement of biotinylated Probe A from the TIPARP active site
Type: binding
Settings: Table A-1
How it was run: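 Read-out: 665/615 nm emission ratio (ex 320 nm, 90 μs delay) indexing bound TIPARP–Probe A. Final incubation 30 min, 25° C; compounds in dose response. Curve fit of % inhibition vs concentration; Hill slope floating or fixed at 1 (3-parameter).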

Sequence of PARP7 (Q7Z3E1 whole entry): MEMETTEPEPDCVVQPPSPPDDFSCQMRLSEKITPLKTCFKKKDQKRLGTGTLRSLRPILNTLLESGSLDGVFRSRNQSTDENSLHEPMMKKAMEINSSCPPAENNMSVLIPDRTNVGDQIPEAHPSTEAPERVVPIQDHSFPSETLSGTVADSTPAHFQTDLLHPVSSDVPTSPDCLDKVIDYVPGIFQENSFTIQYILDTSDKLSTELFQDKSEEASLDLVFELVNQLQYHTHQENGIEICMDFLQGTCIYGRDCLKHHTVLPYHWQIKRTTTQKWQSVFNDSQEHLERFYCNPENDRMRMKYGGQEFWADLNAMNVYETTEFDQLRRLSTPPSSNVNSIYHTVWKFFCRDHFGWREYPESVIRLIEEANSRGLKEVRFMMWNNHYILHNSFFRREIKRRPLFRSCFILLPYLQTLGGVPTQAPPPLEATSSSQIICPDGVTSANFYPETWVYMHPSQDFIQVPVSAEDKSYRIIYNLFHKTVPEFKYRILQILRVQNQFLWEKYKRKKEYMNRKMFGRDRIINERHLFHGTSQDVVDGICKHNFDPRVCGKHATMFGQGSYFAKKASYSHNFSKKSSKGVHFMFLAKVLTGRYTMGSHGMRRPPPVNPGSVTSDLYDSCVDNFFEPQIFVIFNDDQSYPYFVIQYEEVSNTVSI

| SMILES | IC50 [nM] |
| --- | --- |
| CC(C)c1c(N2Cc3ccc(O[C@H]4CCCNC4)cc3C2)cn[nH]c1=O [Example 293, (S)-4-Isopropyl-5-(5-(piperidin-3-yloxy)isoindolin-2-yl)pyridazin-3(2H)-one] | ≥ 1000 |
| CC(=O)N1CCN(c2cccc3c2CN(c2cn[nH]c(=O)c2C(F)(F)F)C3)CC1 [Example 294, 5-(4-(4-Acetylpiperazin-1-yl)isoindolin-2-yl)-4-(trifluoromethyl)pyridazin-3(2H)-one] | < 100 |
| O=c1[nH]ncc(N2Cc3cccc(N4CCNCC4)c3C2)c1C(F)(F)F [Example 295, 5-(4-(Piperazin-1-yl)isoindolin-2-yl)-4-(trifluoromethyl)pyridazin-3(2H)-one] | 100 to 1000 |
| NC1CCN(c2cccc3c2CN(c2cn[nH]c(=O)c2C(F)(F)F)C3)CC1 [Example 296, 5-(4-(4-Aminopiperidin-1-yl)isoindolin-2-yl)-4-(trifluoromethyl)pyridazin-3(2H)-one] | 100 to 1000 |
| O=c1[nH]ncc(N2Cc3cccc(NC4CCNCC4)c3C2)c1C(F)(F)F [Example 297, 5-(4-(Piperidin-4-ylamino)isoindolin-2-yl)-4-(trifluoromethyl)pyridazin-3(2H)-one] | 100 to 1000 |
| CC1(C)CC(Nc2cccc3c2CN(c2cn[nH]c(=O)c2C(F)(F)F)C3)CC(C)(C)N1 [Example 300, 5-(4-((2,2,6,6-Tetramethylpiperidin-4-yl)amino)isoindolin-2-yl)-4-(trifluoromethyl)pyridazin-3(2H)-one] | 100 to 1000 |
| NC1CCCN(c2cccc3c2CN(c2cn[nH]c(=O)c2C(F)(F)F)C3)C1 (stereo not drawn) [Example 301, 5-(4-(3-Aminopiperidin-1-yl)isoindolin-2-yl)-4-(trifluoromethyl)pyridazin-3(2H)-one] | 100 to 1000 |
| CN(c1cccc2c1CN(c1cn[nH]c(=O)c1C(F)(F)F)C2)C1CCNCC1 [Example 302, 5-(4-(Methyl(piperidin-4-yl)amino)isoindolin-2-yl)-4-(trifluoromethyl)pyridazin-3(2H)-one] | 100 to 1000 |
| COc1ccc2c(n1)CN(c1cn[nH]c(=O)c1C(F)(F)F)C2 [Example 303, 5-(2-Methoxy-5,7-dihydro-6H-pyrrolo[3,4-b]pyridin-6-yl)-4-(trifluoromethyl)pyridazin-3(2H)-one] | < 100 |
| O=c1[nH]ncc(N2Cc3ccc(Cl)nc3C2)c1C(F)(F)F [Example 304, 5-(2-Chloro-5,7-dihydro-6H-pyrrolo[3,4-b]pyridin-6-yl)-4-(trifluoromethyl)pyridazin-3(2H)-one] | < 100 |
| O=c1[nH]ncc(N2Cc3cccc(N4CCC(O)C4)c3C2)c1C(F)(F)F (stereo not drawn) [Example 305, 5-(4-(3-Hydroxypyrrolidin-1-yl)isoindolin-2-yl)-4-(trifluoromethyl)pyridazin-3(2H)-one 2,2,2-trifluoroacetic acid] | < 100 |
| NC1CCN(c2cccc3c2CN(c2cn[nH]c(=O)c2C(F)(F)F)C3)C1 (stereo not drawn) [Example 306, 5-(4-(3-Aminopyrrolidin-1-yl)isoindolin-2-yl)-4-(trifluoromethyl)pyridazin-3(2H)-one] | < 100 |
| O=c1[nH]ncc(N2Cc3cccc(NC4CCCOC4)c3C2)c1C(F)(F)F (stereo not drawn) [Example 307, 5-(4-((Tetrahydro-2H-pyran-3-yl)amino)isoindolin-2-yl)-4-(trifluoromethyl)pyridazin-3(2H)-one] | 100 to 1000 |
| COc1cccc2c1CN(c1cn[nH]c(=O)c1C(F)(F)F)C2C (stereo not drawn) [Example 308, 5-(4-Methoxy-1-methylisoindolin-2-yl)-4-(trifluoromethyl)pyridazin-3(2H)-one] | 100 to 1000 |
| COc1cccc2c1C(C)N(c1cn[nH]c(=O)c1C(F)(F)F)C2 (stereo not drawn) [Example 309, 5-(7-Methoxy-1-methylisoindolin-2-yl)-4-(trifluoromethyl)pyridazin-3(2H)-one] | 100 to 1000 |
| CCC1c2ccccc2CN1c1cn[nH]c(=O)c1C(F)(F)F (stereo not drawn) [Example 310, 5-(1-Ethylisoindolin-2-yl)-4-(trifluoromethyl)pyridazin-3(2H)-one] | ≥ 1000 |
| COCCOc1ccc2c(n1)CN(c1cn[nH]c(=O)c1C(F)(F)F)C2 [Example 311, 5-(2-(2-Methoxyethoxy)-5,7-dihydro-6H-pyrrolo[3,4-b]pyridin-6-yl)-4-(trifluoromethyl)pyridazin-3(2H)-one] | 100 to 1000 |
| O=c1[nH]ncc(N2Cc3ccc(OCCO)nc3C2)c1C(F)(F)F [Example 312, 5-(2-(2-Hydroxyethoxy)-5,7-dihydro-6H-pyrrolo[3,4-b]pyridin-6-yl)-4-(trifluoromethyl)pyridazin-3(2H)-one] | 100 to 1000 |
| O=c1[nH]ncc(N2Cc3ccc(OCc4cccnc4)nc3C2)c1C(F)(F)F [Example 313, 5-(2-(Pyridin-3-ylmethoxy)-5,7-dihydro-6H-pyrrolo[3,4-b]pyridin-6-yl)-4-(trifluoromethyl)pyridazin-3(2H)-one] | < 100 |
| CN1CCN(c2cccc3c2CN(c2cn[nH]c(=O)c2C(F)(F)F)C3)CC1 [Example 314, 5-(4-(4-Methylpiperazin-1-yl)isoindolin-2-yl)-4-(trifluoromethyl)pyridazin-3(2H)-one] | 100 to 1000 |

| SMILES | IC50 [nM] |
| --- | --- |
| COc1cc2c(cc1F)CN(c1cn[nH]c(=O)c1C(F)(F)F)C2C (stereo not drawn) [Example 315, 5-(5-Fluoro-6-methoxy-1-methylisoindolin-2-yl)-4-(trifluoromethyl)pyridazin-3(2H)-one] | 100 to 1000 |
| O=c1[nH]ncc(N2Cc3ccc(OCCN4CCOCC4)nc3C2)c1C(F)(F)F [Example 316, 5-(2-(2-Morpholinoethoxy)-5,7-dihydro-6H-pyrrolo[3,4-b]pyridin-6-yl)-4-(trifluoromethyl)pyridazin-3(2H)-one] | 100 to 1000 |
| NCCOc1ccc2c(n1)CN(c1cn[nH]c(=O)c1C(F)(F)F)C2 [Example 317, 5-(2-(2-Aminoethoxy)-5,7-dihydro-6H-pyrrolo[3,4-b]pyridin-6-yl)-4-(trifluoromethyl)pyridazin-3(2H)-one formic acid] | 100 to 1000 |
| CNCCOc1ccc2c(n1)CN(c1cn[nH]c(=O)c1C(F)(F)F)C2 [Example 318, 5-(2-(2-(Methylamino)ethoxy)-5,7-dihydro-6H-pyrrolo[3,4-b]pyridin-6-yl)-4-(trifluoromethyl)pyridazin-3(2H)-one] | 100 to 1000 |
| CN(C)CCOc1ccc2c(n1)CN(c1cn[nH]c(=O)c1C(F)(F)F)C2 [Example 319, 5-(2-(2-(Dimethylamino)ethoxy)-5,7-dihydro-6H-pyrrolo[3,4-b]pyridin-6-yl)-4-(trifluoromethyl)pyridazin-3(2H)-one] | 100 to 1000 |
| Cc1ccc2c(n1)CN(c1cn[nH]c(=O)c1C(F)(F)F)C2 [Example 320, 5-(2-Methyl-5,7-dihydro-6H-pyrrolo[3,4-b]pyridin-6-yl)-4-(trifluoromethyl)pyridazin-3(2H)-one] | < 100 |
| O=c1[nH]ncc(N2Cc3ccc(OCc4ccncc4)nc3C2)c1C(F)(F)F [Example 321, 5-(2-(Pyridin-4-ylmethoxy)-5,7-dihydro-6H-pyrrolo[3,4-b]pyridin-6-yl)-4-(trifluoromethyl)pyridazin-3(2H)-one] | < 100 |
| NCc1ccc2c(c1)CN(c1cn[nH]c(=O)c1C(F)(F)F)C2 [Example 322, 5-(5-(Aminomethyl)isoindolin-2-yl)-4-(trifluoromethyl)pyridazin-3(2H)-one] | 100 to 1000 |
| O=c1[nH]ncc(N2Cc3cc(OCCO)cc(F)c3C2)c1C(F)(F)F [Example 323, 5-(4-Fluoro-6-(2-hydroxyethoxy)isoindolin-2-yl)-4-(trifluoromethyl)pyridazin-3(2H)-one] | < 100 |
| O=c1[nH]ncc(N2Cc3ccc(OC4CCNCC4)nc3C2)c1C(F)(F)F [Example 324, 5-(2-(Piperidin-4-yloxy)-5,7-dihydro-6H-pyrrolo[3,4-b]pyridin-6-yl)-4-(trifluoromethyl)pyridazin-3(2H)-one] | 100 to 1000 |
| O=c1[nH]ncc(N2Cc3cc(OCCN4CCOCC4)cnc3C2)c1C(F)(F)F [Example 325, 5-(3-(2-Morpholinoethoxy)-5,7-dihydro-6H-pyrrolo[3,4-b]pyridin-6-yl)-4-(trifluoromethyl)pyridazin-3(2H)-one] | 100 to 1000 |
| COc1cnc2c(c1)CN(c1cn[nH]c(=O)c1C(F)(F)F)C2 [Example 326, 5-(3-Methoxy-5,7-dihydro-6H-pyrrolo[3,4-b]pyridin-6-yl)-4-(trifluoromethyl)pyridazin-3(2H)-one] | < 100 |
| NCc1cc2c(cc1F)CN(c1cn[nH]c(=O)c1C(F)(F)F)C2 [Example 327, 5-(5-(Aminomethyl)-6-fluoroisoindolin-2-yl)-4-(trifluoromethyl)pyridazin-3(2H)-one] | 100 to 1000 |
| CN(Cc1ccncc1)Cc1cccc2c1CN(c1cn[nH]c(=O)c1C(F)(F)F)C2 [Example 328, 5-(4-((Methyl(pyridin-4-ylmethyl)amino)methyl)isoindolin-2-yl)-4-(trifluoromethyl)pyridazin-3(2H)-one] | < 100 |
| O=c1[nH]ncc(N2Cc3cccc(CNCc4ccncc4)c3C2)c1C(F)(F)F [Example 329, 5-(4-(((Pyridin-4-ylmethyl)amino)methyl)isoindolin-2-yl)-4-(trifluoromethyl)pyridazin-3(2H)-one] | < 100 |
| N#CCC1c2ccccc2CN1c1cn[nH]c(=O)c1C(F)(F)F (stereo not drawn) [Example 330, 2-(2-(6-Oxo-5-(trifluoromethyl)-1,6-dihydropyridazin-4-yl)isoindolin-1-yl)acetonitrile] | ≥ 1000 |
| CN(C)CCOc1cc(F)c2c(c1)CN(c1cn[nH]c(=O)c1C(F)(F)F)C2 [Example 331, 5-(6-(2-(Dimethylamino)ethoxy)-4-fluoroisoindolin-2-yl)-4-(trifluoromethyl)pyridazin-3(2H)-one] | < 100 |
| COc1ccc2c(c1)C(C)N(c1cn[nH]c(=O)c1C(F)(F)F)C2 (stereo not drawn) [Example 332, 5-(6-Methoxy-1-methylisoindolin-2-yl)-4-(trifluoromethyl)pyridazin-3(2H)-one] | 100 to 1000 |
| CC(=O)N1CCC(Oc2ccc3c(n2)CN(c2cn[nH]c(=O)c2C(F)(F)F)C3)CC1 [Example 333, 5-(2-((1-Acetylpiperidin-4-yl)oxy)-5,7-dihydro-6H-pyrrolo[3,4-b]pyridin-6-yl)-4-(trifluoromethyl)pyridazin-3(2H)-one] | < 100 |
